Results taken from BindingDB's records for patent US20250019381 (Cardurion Pharmaceuticals, 2025).
pIC50: −log10 of the molar value.

Target: Dual specificity calcium/calmodulin-dependent 3',5'-cyclic nucleotide phosphodiesterase 1A (Human, UniProt P54750)
Assay: Enzyme immunoassay

Chain of Dual specificity calcium/calmodulin-dependent 3',5'-cyclic nucleotide phosphodiesterase 1A (P54750 whole entry): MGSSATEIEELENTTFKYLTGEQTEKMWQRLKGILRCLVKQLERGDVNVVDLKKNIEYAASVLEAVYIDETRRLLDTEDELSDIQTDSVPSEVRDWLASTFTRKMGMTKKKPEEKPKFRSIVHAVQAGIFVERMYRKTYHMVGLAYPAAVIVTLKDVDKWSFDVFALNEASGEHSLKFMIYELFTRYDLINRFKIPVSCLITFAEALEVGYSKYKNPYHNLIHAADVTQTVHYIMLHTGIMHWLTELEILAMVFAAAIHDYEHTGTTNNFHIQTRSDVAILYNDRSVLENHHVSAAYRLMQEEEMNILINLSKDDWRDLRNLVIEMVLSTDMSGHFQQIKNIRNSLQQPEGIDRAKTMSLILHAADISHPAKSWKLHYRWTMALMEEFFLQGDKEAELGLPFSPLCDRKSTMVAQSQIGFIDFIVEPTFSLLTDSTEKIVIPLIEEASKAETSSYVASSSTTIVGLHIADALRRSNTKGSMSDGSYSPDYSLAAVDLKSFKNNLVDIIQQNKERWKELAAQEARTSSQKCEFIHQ

O=c1[nH]c(CN2CC(Oc3cccnc3)C2)cn2c(C3CCOCC3)ncc12 [US20250019381, Compound (P2)] was tested. Which pIC50 did it give?
Its pIC50 is 5.28.
